Measurements from PMC11228983, “Rapid Protein–Ligand Affinity Determination by Photoinduced Hyperpolarized NMR” (Journal of the American Chemical Society, 2024).
Residues, ends and D or L forms follow the SMILES beside them.

T1: PDZ2 domain of human tyrosine phosphatase 1E (hPTP1E) (Homo sapiens, UniProt Q12923)
T1 construct: the constructs used for the PDZ2 domain of human tyrosine phosphatase 1E; polyhistidine (N); made in house; host or cells: Escherichia coli BL21 (DE3)
T1 sequence (Q12923 1368-1452 limits assumed): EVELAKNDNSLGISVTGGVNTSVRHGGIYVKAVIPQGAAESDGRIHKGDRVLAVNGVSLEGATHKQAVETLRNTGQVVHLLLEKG

T2: WEQVSAV
T2 chain: WEQVSAV

T3: ENEQVSAV (RA-GEF2) (Homo sapiens)
T3 chain: ENEQVSAV

T4: WVSAV
T4 chain: WVSAV

T5: WQVSAV
T5 chain: WQVSAV

T6: QVSAV (RA-GEF2) (Homo sapiens)
T6 chain: QVSAV


Columns and labels:
[1] = target: T1, PDZ2 domain of human tyrosine phosphatase 1E (hPTP1E); assay: 2D [1H,15N]-HSQC chemical shift perturbation titration; type: binding; conditions: 30 μM 15N PDZ2, pH 6.8, 298 K
Description: We compared the affinities of the peptides obtained via CIDNP-KD with the state-of-the-art 2D [^1H, ^15N]-HSQC titration experiments measured with 30 μM PDZ2 (Figure S3).
(§1) Expression and purification were carried out as in previously reported procedures. In short, expression in Escherichia coli cells (BL21 (DE3)) and purification via Ni-NTA chromatography as the constructs used for the PDZ2 domain of human tyrosine phosphatase 1E and human PIN1 both contained N-terminal polyhistidine tags. Both protein constructs were measured in an NMR buffer consisting of 50 mM NaCl, 20 mM KPO4, and 10% D2O at pH 6.8. For the control [^1H, ^15N]-HSQC experiments, the PDZ2 domain was expressed in ^15N-enriched minimal medium.[34],[43]
All photo-CIDNP and STD-NMR experiments were recorded at 298 K on a Bruker Avance III HD 600 MHz spectrometer equipped with a cryoprobe. The [^15N, ^1H] – HSQC titration experiments of the PDZ2 domain were performed also at 298 K on another Bruker Avance IIII HD 600 MHz spectrometer equipped with a cryoprobe and SampleJet.
Peak picking was performed with the maximal peak picking tool of Mnova software. Plotting, fitting, and data analysis was done in RStudio with the workflow described above. The [^15N, ^1H]-HSQC reference affinities were analyzed with CCPNMR3.1.[62] The backbone assignment was taken from BMRB 34688.
Fig. S3: 2D [15N, 1H]-HSQC titration of peptides to hPDZ2 domain. The 2D [ 15N, 1H]-
HSQC spectra of the titration series in presence of 30 µM hPDZ2 domain and the
corresponding observed chemical shift difference of A74 plotted versus the peptide
(1 picture or pasted object on this page, not shown here)

[2] = target: T1, PDZ2 domain of human tyrosine phosphatase 1E (hPTP1E); assay: CIDNP-KD ligand titration (photo-CIDNP hyperpolarized NMR); type: binding
Description: For both STD-NMR and CIDNP-KD, there is an initial buildup of the signal at the start of the irradiation. However, the mechanisms underlying it and, thus, the kinetics of the signal buildup are different between the techniques. In STD-NMR, the saturation of L starts to build up as soon as the irradiation of the protein begins because preformed PL complexes can be immediately saturated. However, in CIDNP-KD, the preformed PL complexes are not CIDNP-active. Therefore, a free L must first be hyperpolarized and then bind to P before any signal reduction is observable. Therefore, we will use the AF(ti) corresponding to the steady state in contrast to STD-NMR, where one needs to measure the initial growth of the amplification factor to account for the ligand rebinding effects, which are significant at low ligand-to-protein ratios;[7] there is no need for an initial amplification factor in CIDNP-KD. During the photo-CIDNP process, only 0.1–1% of the ligand becomes hyperpolarized such that even at low ligand-to-protein ratios, the rebinding of L* is not a significant factor. Therefore, one needs to only assess the time to reach a steady-state amplification factor AFss, whose value is measured at a series of ligand concentrations, and then fit eq 5 to determine the proportionality factor α and the dissociation constant KD (Figure 1D,E) [drawing 5] 5 Affinities are obtained with the CIDNP-KD method as follows. The ligand of interest and the photosensitizer are prepared as titration series in the presence and absence of the target protein (Figure 1A) and measured with the Cryolight setup (Figure 1B,[23]), which allows the automatization with an autosampler. The photo-CIDNP signal builds up within 2 s (Figure 1C). It allows us to measure the irradiation time-dependent photo-CIDNP buildup of the ligand NMR signal in the presence and absence of protein in under a minute per sample (Figure S1A). These signal intensities are converted into AF(ti) with eq 4 (Figure S1B), giving an individual titration data point in the corresponding ligand titration curve (Figure S1C). The experiment is repeated at different ligand concentrations to build the titration curve fitted using eq 5, yielding the KD (Figure 1E,F). The entire measurement of all the photo-CIDNP spectra of 7 titration points (14 measurements) takes about 7 min in measurement time, plus the time to exchange the samples with the autosampler (Figure 1D).
Figure 2 presents the CIDNP-KD titration curves for each peptide with 20 μM PDZ2 in (A) and 10 μM PDZ2 in (B to D). The curves were obtained using the workflow described in the introduction for each proton of tryptophan that has sufficient photo-CIDNP signal enhancement and signal reduction upon binding (Figure S2).
Figure 2 Affinity determination of different peptides binding to the hPDZ2 domain by CIDNP-KD within a few minutes. Ligand titration of (A) WSAV, (B) WVSAV, (C) WQVSAV, and (D) WEQVSAV against the human tyrosine phosphatase PDZ2 domain (20 μM for WSAV, 10 μM for others) as described in Figures 1 and S1. The plots contain the titration curves for all protons of the tryptophan residue that undergo signal enhancement through photo-CIDNP and display sufficient quenching upon protein binding. The individual data points are measured with single-scan experiments with laser irradiation durations where t > tss: (A) 1500 ms, (B) 2000 ms, (C) 2000 ms, and (D) 2000 ms.
as §1, with “medium.[34],[43] […]” for “medium.[34],[43]”

[3] = target: T2, WEQVSAV; assay: CIDNP-KD NMR (H6)
[4] = target: T2, WEQVSAV; assay: [1H,15N]-HSQC titration (A74)
[5] = target: T3, ENEQVSAV (RA-GEF2); assay: [1H,15N]-HSQC titration (A74)
[6] = target: T4, WVSAV; assay: [1H,15N]-HSQC titration (A74)
[7] = target: T5, WQVSAV; assay: [1H,15N]-HSQC titration (A74)
[8] = target: T6, QVSAV (RA-GEF2); assay: [1H,15N]-HSQC titration (A74)
[9] = target: T3, ENEQVSAV (RA-GEF2); assay: competition CIDNP-KD NMR (Hβ)
[10] = target: T6, QVSAV (RA-GEF2); assay: competition CIDNP-KD NMR (Hβ)
[11] = target: T2, WEQVSAV; assay: CIDNP-KD NMR (H2)
[12] = target: T4, WVSAV; assay: CIDNP-KD NMR (H2)
[13] = target: T5, WQVSAV; assay: CIDNP-KD NMR (H2)
[14] = target: T2, WEQVSAV; assay: CIDNP-KD NMR (Hβ)
[15] = target: T4, WVSAV; assay: CIDNP-KD NMR (Hβ)
[16] = target: T5, WQVSAV; assay: CIDNP-KD NMR (Hβ)
[17] = target: T3, ENEQVSAV (RA-GEF2); assay: competition CIDNP-KD NMR (H4)
[18] = target: T4, WVSAV; assay: CIDNP-KD NMR (H4)
[19] = target: T5, WQVSAV; assay: CIDNP-KD NMR (H4)
[20] = 15N–1H moiety of A74, read-out: [1H,15N]-HSQC–CSP KD, NH of A74
[21] = range over residues, read-out: [1H,15N]-HSQC–CSP KD range of all residues showing chemical shift perturbation
[22] = range over Hβ/H2/H4/H6 fits, read-out: CIDNP-KD affinity, range over the observed tryptophan protons
[23] = tryptophan H2 signal, 20 μM PDZ2 for WSAV, 10 μM for others, pH 6.8, 298 K, H2 overlaps H6 for WVSAV and WQVSAV, read-out: CIDNP-KD, H2
[24] = tryptophan H4 signal, 20 μM PDZ2 for WSAV, 10 μM for others, pH 6.8, 298 K, read-out: CIDNP-KD, H4
[25] = tryptophan H6 signal, 20 μM PDZ2 for WSAV, 10 μM for others, pH 6.8, 298 K, read-out: CIDNP-KD, H6
[26] = tryptophan Hβ signal, 20 μM PDZ2 for WSAV, 10 μM for others, 25 μM fluorescein, 450 nm, 50 mM NaCl, 20 mM KPO4, 10% D2O, pH 6.8, 298 K, single-scan, steady state, fit ± error, read-out: CIDNP-KD, Hβ

Molecule	Kd [1, 20]	Kd [1, 21]	Kd [2, 22]	Kd [2, 23]	Kd [2, 24]	Kd [2, 25]	Kd [2, 26]	also measured
CC(C)[C@H](NC(=O)[C@H](C)NC(=O)[C@H](CO)NC(=O)[C@@H](NC(=O)[C@H](CCC(N)=O)NC(=O)[C@H](CCC(=O)O)NC(=O)[C@@H](N)Cc1c[nH]c2ccccc12)C(C)C)C(=O)O [WEQVSAV] (H-WEQVSAV-OH)	16 ± 5 µM	10 to 70 µM	55 to 82 µM	63 ± 28 µM	63 ± 16 µM	55 ± 17 µM	82 ± 33 µM	
CC(C)[C@H](NC(=O)[C@H](C)NC(=O)[C@H](CO)NC(=O)[C@@H](NC(=O)[C@H](CCC(N)=O)NC(=O)[C@@H](N)Cc1c[nH]c2ccccc12)C(C)C)C(=O)O [WQVSAV] (H-WQVSAV-OH)	68 ± 11 µM	20 to 280 µM	19 to 200 µM	74 ± 14 µM	230 ± 30 µM		27 ± 16 µM	
CC(C)[C@H](NC(=O)[C@H](C)NC(=O)[C@H](CO)NC(=O)[C@@H](N)Cc1c[nH]c2ccccc12)C(=O)O [WSAV] (H-WSAV-OH)	1320 ± 160 µM	200 to 4000 µM	3100 to 3300 µM	3300 ± 2300 µM	3100 ± 1500 µM	3100 ± 3200 µM		
CC(C)[C@H](NC(=O)[C@H](C)NC(=O)[C@H](CO)NC(=O)[C@@H](NC(=O)[C@@H](N)Cc1c[nH]c2ccccc12)C(C)C)C(=O)O [WVSAV] (H-WVSAV-OH)	108 ± 10 µM	50 to 400 µM	80 to 330 µM	80 ± 60 µM	330 ± 80 µM		170 ± 40 µM	
PDZ2 domain of human tyrosine phosphatase 1E (hPTP1E) PDZ2 (protein) DIFEVELAKNDNSLGISVTGGVNTSVRHGGIYVKAVIPQGAAESDGRIHKGDRVLAVNGVSLEGATHKQAVETLRNTGQVVHLLLEKGQSP								Kd [3]: 55 µM; Kd [4]: 16 µM; Kd [5]: 17 µM; Kd [6]: 108 µM; Kd [7]: 68 µM; Kd [8]: 155 µM; Kd [9]: 35 µM; Kd [10]: 580 µM; Kd [11]: 63 µM; Kd [12]: 80 µM; Kd [13]: 74 µM; Kd [14]: 82 µM; Kd [15]: 170 µM; Kd [16]: 27 µM; Kd [17]: 91 µM; Kd [18]: 330 µM; Kd [19]: 230 µM
